# Results taken from patent publication US10463651B2, “3-(1H-pyrrolo[3,2-C]pyridin-2-YL)-1H-indazoles and therapeutic uses thereof” (Samumed, LLC, priority 2015, dated 2019).
# Tests used:
# Type in all cases: cell-based
# [1] = test system: Wnt activity (Sp5-Luc reporter, SW480 colon carcinoma cells); assay: Screening assay for Wnt activity (Sp5-Luc reporter gene assay in SW480 cells); conditions: Homo sapiens; Sp5-Luc reporter, SW480 cells, incubated overnight
# Excerpt: The screening assay for Wnt activity is described as follows. Reporter cell lines can be generated by stably transducing cancer cell lines (e.g., colon cancer) or primary cells (e.g., IEC-6 intestinal cells) with a lentiviral construct that includes a Wnt-responsive promoter driving expression of the firefly luciferase gene.
# SW480 colon carcinoma cells were transduced with a lentiviral vector expressing luciferase with a human Sp5 promoter consisting of a sequence of eight TCF/LEF binding sites. SW480 cells stably expressing the Sp5-Luc reporter gene and a hygromycin resistance gene were selected by treatment with 150 μg/mL of hygromycin for 7 days. These stably transduced SW480 cells were expanded in cell culture and used for all further screening activities. […] For Sp5-Luc reporter gene assays, the cells were plated at 4,000 cells/well in 384-well plates with medium containing 1% fetal bovine serum and incubated overnight at 37° C. and 5% CO2. Following incubation, 20 μl of BrightGlo luminescence reagent (Promega) was added to each well of the 384-well assay plates. The plates were placed on an orbital shaker for 2 min and then luminescence was quantified using the Envision (Perkin Elmer) plate reader. Readings were normalized to DMSO only treated cells, and normalized activities were utilized for EC50 calculations using the dose-response log (inhibitor) vs. response-variable slope (four parameters) nonlinear regression feature available in GraphPad Prism 5.0 (or Dotmatics).
# SW480 colon cancer cells = assay: Cell viability assay (CellTiter-Blue); conditions: Homo sapiens, 96 h; SW480 cell viability, four days, CellTiter-Blue
# Protocol: Representative compounds were screened using the following assay procedure to assess the effect on cell viability as described below.
# Approximately 2×10^3 SW480 colon cancer cells were seeded into each well and allowed to incubate in the presence or absence of compound for four days at 37° C./5% CO2. Eight replicates of DMSO-treated cells served as controls and cells treated with compound were performed in duplicate.
# After incubation, 20 μL of CellTiter-Blue (Promega) was added to each well allowed to incubate for approximately 3 hours. This reagent was a buffered solution which contains resazurin, metabolically active cells were able to reduce rezarurin (blue) into resorufin (pink) which was highly fluorescent. This measured fluorescence was used as a readout for cell viability.
# [2] = test system: primary human fibroblasts derived from IPF patients (LL29 cells) treated with TGF-β1; assay: Inhibition of the fibrotic process (αSMA staining) in TGF-β1-treated fibroblasts; conditions: Fibroblast, 96 h; for EC50: % αSMA-positive LL29 cells, TGF-β1 20 ng/mL, 4 days
# Protocol: Representative compounds were screened using primary human fibroblasts (derived from IPF patients) treated with TGF-β1 to determine their ability to inhibit the fibrotic process.
# LL29 cells are plated at 1,500 cells/well in 80 μL/well F12 medium supplemented with 1% Fetal Bovine Serum. […] Wells treated with TGF-P1 and containing DMSO were used as controls. […] Following incubation for 4 days, SYTOX green nucleic acid stain (Life Technologies [Thermo Fisher Scientific]) was added to the wells at a final concentration of 1 μM and incubated at room temperature for 30 min.
# IL-6 (THP-1 cells) = assay: IL-6 inhibition in LPS-stimulated THP-1 cells (HTRF); conditions: Homo sapiens; for EC50: IL6 by HTRF, THP-1 cells, 500 ng/mL LPS, 22 hours; for inhibition at 10 µM: THP-1, read-out: percent inhibition at 10 M
# Protocol: THP-1 cells were cultured in basal media with 1% FBS for 24 hours before the start of the assay. […] THP-1 cells were plated at 5000 cells/well in the 384-well plates and incubated at 37° C. for 2 h. 500 ng/mL of LPS was added after 2 hours and cells were incubated for another 22 hours at 37° C. Plates were spun in a centrifuge for 1 minute at […] and a mixture of anti-IL6 XL665, and anti-IL6 Cryptate diluted in reconstitution buffer (Cisbio Inc.) was added to each well. Following incubation for 3 hrs at room temperature, Homogeneous Time-Resolved Fluorescence (HTRF) was measured using the Envision (Perkin Elmer) at 665 nm and […]. The ratio of fluorescence at 665 nm to 620 nm was used as a readout for IL6 quantification. All samples were processed in duplicate. Readings were normalized to DMSO treated cells and normalized activities were utilized for EC50 calculations using the dose-response log (inhibitor) vs. response-variable slope (four parameters) nonlinear regression feature available in GraphPad Prism 5.0 (or Dotmatics).
EC50 [1] [nM],EC50 (SW480 colon cancer cells) [nM],EC50 (IL-6 (THP-1 cells)) [nM],Compound,EC50 [2] [nM],inhibition at 10 µM (IL-6 (THP-1 cells)) [%],inhibition at 10 µM ([2]; read-out: percent inhibition at 10 μM) [%]
105,455,154,"CCCC(=O)Nc1cncc(-c2ccc3[nH]nc(-c4cc5cnccc5[nH]4)c3c2)c1 [Compound 269, N-(5-(3-(1H-Pyrrolo[3,2-c]pyridin-2-yl)-1H-indazol-5-yl)pyridin-3-yl) butyramide]",149,,
1250,661,1100,"c1cncc(-c2ccc3[nH]nc(-c4cc5c(-c6ccsc6)nccc5[nH]4)c3c2)c1 [Compound 284, 5-(Pyridin-3-yl)-3-(4-(thiophen-3-yl)-1H-pyrrolo[3,2-c]pyridin-2-yl)-1H-indazole]",648,,
2220,1900,> 10000,"c1ccc(-c2ccc3[nH]nc(-c4cc5c(-c6cccs6)nccc5[nH]4)c3c2)nc1 [Compound 364, 5-(Pyridin-2-yl)-3-(4-(thiophen-2-yl)-1H-pyrrolo[3,2-c]pyridin-2-yl)-1H-indazole]",1770,44,
581,1070,115,"CC(C)CC(=O)Nc1cncc(-c2ccc3[nH]nc(-c4cc5c(-c6cc(F)cc(CNS(C)(=O)=O)c6)nccc5[nH]4)c3c2)c1 [Compound 478, N-(5-(3-(4-(3-Fluoro-5-(methylsulfonamidomethyl)phenyl)-1H-pyrrolo[3,2-c]pyridin-2-yl)-1H-indazol-5-yl)pyridin-3-yl)-3-methylbutanamide]",2370,,
370,930,137,"CS(=O)(=O)NCc1cc(F)cc(-c2nccc3[nH]c(-c4n[nH]c5ccc(-c6cncc(NC(=O)C7CC7)c6)cc45)cc23)c1 [Compound 496, N-(5-(3-(4-(3-Fluoro-5-(methylsulfonamidomethyl)phenyl)-1H-pyrrolo[3,2-c]pyridin-2-yl)-1H-indazol-5-yl)pyridin-3-yl)cyclopropanecarboxamide]",5120,,
188,492,27,"CS(=O)(=O)NCc1cc(F)cc(-c2nccc3[nH]c(-c4n[nH]c5ccc(-c6cncc(NC(=O)C7CCC7)c6)cc45)cc23)c1 [Compound 497, N-(5-(3-(4-(3-Fluoro-5-(methylsulfonamidomethyl)phenyl)-1H-pyrrolo[3,2-c]pyridin-2-yl)-1H-indazol-5-yl)pyridin-3-yl)cyclobutanecarboxamide]",599,,
741,1140,103,"CS(=O)(=O)NCc1cc(F)cc(-c2nccc3[nH]c(-c4n[nH]c5ccc(-c6cncc(NC(=O)C7CCCC7)c6)cc45)cc23)c1 [Compound 498, N-(5-(3-(4-(3-Fluoro-5-(methylsulfonamidomethyl)phenyl)-1H-pyrrolo[3,2-c]pyridin-2-yl)-1H-indazol-5-yl)pyridin-3-yl)cyclopentanecarboxamide]",3500,,
3610,5540,> 10000,"CS(=O)(=O)NCc1cc(F)cc(-c2nccc3[nH]c(-c4n[nH]c5ccc(-c6ccccn6)cc45)cc23)c1 [Compound 504, N-(3-Fluoro-5-(2-(5-(pyridin-2-yl)-1H-indazol-3-yl)-1H-pyrrolo[3,2-c]pyridin-4-yl)benzyl)methanesulfonamide]",2130,40.6,
3590,3840,723,"Fc1cccc(-c2nccc3[nH]c(-c4n[nH]c5ccc(C6CCNCC6)cc45)cc23)c1 [Compound 505, 3-(4-(3-Fluorophenyl)-1H-pyrrolo[3,2-c]pyridin-2-yl)-5-(piperidin-4-yl)-1H-indazole]",3320,,
111,837,92,"Fc1ccc(-c2nccc3[nH]c(-c4n[nH]c5ccc(-c6cn[nH]c6)cc45)cc23)cc1 [Compound 523, 3-(4-(4-Fluorophenyl)-1H-pyrrolo[3,2-c]pyridin-2-yl)-5-(1H-pyrazol-4-yl)-1H-indazole]",161,,
3380,1180,7050,"CN(C)CCOc1cncc(-c2ccc3[nH]nc(-c4cc5c(-c6ccc(F)cc6)nccc5[nH]4)c3c2)c1 [Compound 531, 2-((5-(3-(4-(4-fluorophenyl)-1H-pyrrolo[3,2-c]pyridin-2-yl)-1H-indazol-5-yl)pyridin-3-yl)oxy)-N,N-dimethylethan-1-amine]",908,,
2340,2620,2490,"Fc1ccccc1-c1nccc2[nH]c(-c3n[nH]c4ccc(-c5cncc(OC6CCNCC6)c5)cc34)cc12 [Compound 544, 3-(4-(2-Fluorophenyl)-1H-pyrrolo[3,2-c]pyridin-2-yl)-5-(5-(piperidin-4-yloxy)pyridin-3-yl)-1H-indazole]",> 10000,,0
59,448,90,"Cn1cc(-c2ccc3[nH]nc(-c4cc5c(-c6cccnc6)nccc5[nH]4)c3c2)cn1 [Compound 556, 5-(1-Methyl-1H-pyrazol-4-yl)-3-(4-(pyridin-3-yl)-1H-pyrrolo[3,2-c]pyridin-2-yl)-1H-indazole]",29,,
1760,2780,66,"NC1CN(c2cncc(-c3ccc4[nH]nc(-c5cc6c(N7CCCCC7)nccc6[nH]5)c4c3)n2)C1 [Compound 606, 1-(6-(3-(4-(Piperidin-1-yl)-1H-pyrrolo[3,2-c]pyridin-2-yl)-1H-indazol-5-yl)pyrazin-2-yl)azetidin-3-amine]",236,,
1140,1500,1050,"c1cc2[nH]c(-c3n[nH]c4ccc(-c5cncc(OC6CCCCC6)c5)cc34)cc2c(N2CCCCC2)n1 [Compound 607, 5-(5-(Cyclohexyloxy)pyridin-3-yl)-3-(4-(piperidin-1-yl)-1H-pyrrolo[3,2-c]pyridin-2-yl)-1H-indazole]",487,,
1150,1510,5410,"COc1cncc(-c2ccc3[nH]nc(-c4cc5c(-c6ccc(C)s6)nccc5[nH]4)c3c2)c1 [Compound 740, 5-(5-Methoxypyridin-3-yl)-3-(4-(5-methylthiophen-2-yl)-1H-pyrrolo[3,2-c]pyridin-2-yl)-1H-indazole]",445,,
1010,941,> 10000,"CS(=O)(=O)NCc1cc(F)cc(-c2nccc3[nH]c(-c4n[nH]c5ccc(-c6cncc(OCc7ccccc7)c6)cc45)cc23)c1 [Compound 774, N-(3-(2-(5-(5-(Benzyloxy)pyridin-3-yl)-1H-indazol-3-yl)-1H-pyrrolo[3,2-c]pyridin-4-yl)-5-fluorobenzyl)methanesulfonamide]",2300,42.4,

Compound,EC50 [1] [nM],EC50 (SW480 colon cancer cells) [nM],EC50 (IL-6 (THP-1 cells)) [nM],EC50 [2] [nM],inhibition at 10 µM (IL-6 (THP-1 cells)) [%],inhibition at 10 µM ([2]; read-out: percent inhibition at 10 μM) [%]
"Fc1ccc(-c2nccc3[nH]c(-c4n[nH]c5ccc(C6=CCNCC6)cc45)cc23)cc1 [Compound 522, 3-(4-(4-Fluorophenyl)-1H-pyrrolo[3,2-c]pyridin-2-yl)-5-(1,2,3,6-tetrahydropyridin-4-yl)-1H-indazole]",3780,2170,> 10000,1430,4.1,
